# Values of other authors in patent US10736889B2, “Method of treating dyskinesia” (Rutgers, The State University of New Jersey, priority 2011, dated 2020).
# Read-outs that look alike come from different tables or passages of the source.
# Experiments:
# [1] = molecular target: κ-opioid receptors (Homo sapiens, UniProt P41145); settings: for Ki: read-out: Ki for κ-opioid receptors; for IC50: read-out: IC50 for κ-opioid receptors
# [2] = molecular target: δ-opioid receptors (Homo sapiens, UniProt P41143); settings: for Ki: read-out: Ki for δ-opioid receptors
# [3] = molecular target: μ-opioid receptors (Homo sapiens, UniProt P35372); settings: for Ki: read-out: Ki for μ-opioid receptors
# [4] = test system: LID; settings: variable effects in monkeys and humans
# [5] = test system: LID; settings: only drug available
# [6] = test system: LID; settings: in vivo
# [7] = test system: hemiparkinsonian marmoset monkeys; settings: lower doses
# [8] = test system: 6-hydroxydopamine-lesioned rat model
# [9] = compared with Nalbuphine itself
# κ-opioid receptors, sequence (P41145 whole entry): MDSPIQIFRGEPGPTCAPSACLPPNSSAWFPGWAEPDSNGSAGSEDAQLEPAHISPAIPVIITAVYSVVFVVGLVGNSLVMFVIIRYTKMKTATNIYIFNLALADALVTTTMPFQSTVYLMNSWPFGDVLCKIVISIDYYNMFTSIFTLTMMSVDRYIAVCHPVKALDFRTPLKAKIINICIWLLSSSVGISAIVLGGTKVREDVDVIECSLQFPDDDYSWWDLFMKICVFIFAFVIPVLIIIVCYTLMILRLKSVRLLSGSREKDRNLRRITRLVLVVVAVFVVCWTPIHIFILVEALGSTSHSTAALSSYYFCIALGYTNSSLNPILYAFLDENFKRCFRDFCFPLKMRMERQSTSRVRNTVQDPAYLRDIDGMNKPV
# δ-opioid receptors, sequence (P41143 whole entry): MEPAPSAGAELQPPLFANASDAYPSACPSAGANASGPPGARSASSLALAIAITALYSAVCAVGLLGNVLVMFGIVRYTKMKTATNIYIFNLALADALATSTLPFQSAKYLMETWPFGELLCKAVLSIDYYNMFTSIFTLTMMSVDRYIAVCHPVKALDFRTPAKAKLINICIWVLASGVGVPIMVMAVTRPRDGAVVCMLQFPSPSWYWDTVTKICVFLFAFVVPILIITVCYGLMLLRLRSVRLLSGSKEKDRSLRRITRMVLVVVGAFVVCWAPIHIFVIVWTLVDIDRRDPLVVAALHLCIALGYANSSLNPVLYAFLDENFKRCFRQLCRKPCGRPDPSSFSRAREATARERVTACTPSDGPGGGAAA
# μ-opioid receptors, sequence (P35372 whole entry): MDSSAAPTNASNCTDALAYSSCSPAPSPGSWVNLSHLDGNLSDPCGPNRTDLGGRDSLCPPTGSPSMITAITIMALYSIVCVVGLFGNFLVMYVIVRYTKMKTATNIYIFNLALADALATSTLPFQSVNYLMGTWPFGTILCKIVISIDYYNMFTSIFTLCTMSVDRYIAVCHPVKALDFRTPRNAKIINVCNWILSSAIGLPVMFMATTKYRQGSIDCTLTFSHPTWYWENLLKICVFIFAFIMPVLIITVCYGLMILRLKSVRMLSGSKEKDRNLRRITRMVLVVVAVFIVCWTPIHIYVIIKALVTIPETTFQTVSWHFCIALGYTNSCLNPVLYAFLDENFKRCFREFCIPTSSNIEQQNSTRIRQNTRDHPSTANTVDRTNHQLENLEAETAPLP
compound,measurement,setting,value
CC(C)=CCN1CC[C@@]2(C)c3cc(O)ccc3C[C@@H]1C2C (stereo in doubt) [Pentazocine],Ki,[1],~2.2 nM
C=CCN1CCC2(C)c3cc(O)ccc3CC1C2C (stereo not shown) [Alazocine],Ki,[2],~15 nM
same,Ki,[3],~3 nM
same,Ki,[1],~4.7 nM
CNCC[C@@H](Oc1ccccc1C)c1ccccc1 [Atomoxetine],IC50,[2]; read-out: IC50 for δ-opioid receptors,< 5000 nM
same,IC50,[3],~4190 nM
same,IC50,[1],~4380 nM
CCC12CCN(CC3(O)CC3)C(Cc3ccc(O)cc31)C2(C)C (stereo not shown) [Bremazocine],Ki,[2],< 1000 nM
same,IC50,[1],~0.16 nM
Oc1ccc2c(c1)[C@@]13CCCC[C@@]1(O)[C@@H](C2)N(CC1CCC1)CC3 [Butorphanol],Ki,[2],~12 nM
same,Ki,[1],~0.12 nM
C=CCN1CC[C@]23c4c5ccc(OC)c4O[C@H]2[C@@H](O)C=C[C@H]3[C@H]1C5 [Nalodeine],Ki,[2],< 1000 nM
C=CCN1CC[C@]23c4c5ccc(O)c4O[C@H]2C(=O)CC[C@@]3(O)[C@H]1C5 [Naloxone],LID,[4],"no change, increases or decreases"
O=C1CC[C@@]2(O)[C@H]3Cc4ccc(O)c5c4[C@@]2(CCN3CC2CC2)[C@H]1O5 [Naltrexone],LID,[4],"no change, increases or decreases"
Oc1ccc2c3c1O[C@H]1c4oc5ccccc5c4C[C@@]4(O)[C@@H](C2)N(CC2CC2)CC[C@]314 [Naltriben],Ki,[3],~19.8 nM
same,Ki,[1],~82.8 nM
NC(=O)c1ccc2c(c1O)[C@]13CCN(CC4CC4)C(C2)[C@]1(O)CCC(=O)C3 [Samidorphan],Ki,[2],~2.6 nM
same,Ki,[3],~0.052 nM
same,Ki,[1],~0.23 nM
"Cl.NC12CC3CC(CC(C3)C1)C2 [amantadine, 1-adamantanamine hydrochloride]",LID,[5],modestly reduce LID
COc1cccc2c1[C@]13CCN(CC4CC4)[C@H](C2)[C@]1(OC)CCC(=O)C3 [cyprodime],peak-dose LID,[6],significantly reduces
Oc1ccc2c3c1O[C@H]1c4[nH]c5ccccc5c4C[C@@]4(O)[C@@H](C2)N(CC2CC2)CC[C@]314 [naltrindole],levodopa-induced rotations,[7],reduce levodopa-induced rotations
Oc1ccc2c3c1O[C@H]1c4[nH]c5c(c4C[C@@]4(O)[C@@H](C2)N(CC2CC2)CC[C@]314)C[C@@]1(O)[C@H]2Cc3ccc(O)c4c3[C@@]1(CCN2CC1CC1)[C@H]5O4 [nor-BNI],levodopa-induced hyperkinesias,[8],moderates
O=C(CCCCCCCCC(=O)Oc1ccc2c3c1O[C@H]1[C@@H](O)CC[C@@]4(O)[C@@H](C2)N(CC2CCC2)CC[C@]314)Oc1ccc2c3c1O[C@H]1[C@@H](O)CC[C@@]4(O)[C@@H](C2)N(CC2CCC2)CC[C@]314 [sebacoyl di-Nalbuphine ester],bioavailability,[9],improved over that of Nalbuphine itself
N-allyl-normorphine [Nalorphine],Ki,[2],~6.33 nM
